pEC50: −log10 of the molar value. Values joined by “and” are separate entries in the source; they are usually repeats but may differ in a detail not shown here. Equal values may be shown once.
Columns and labels:
C57BL/6J mice = assay: Mouse ECG analysis (cardiac safety); type: in vivo; parameters: QTc / QT: unit not given here
wild-type KV11.1 [1] = target: T1, wild-type KV11.1 (Homo sapiens, UniProt Q12809)
WT Kv11.1 = WT Kv11.1 (Homo sapiens, UniProt Q12809); conditions: 24 hour and washout, individual wells
Description: plot of hits tested for 24-h our WT toxicity. Each point repres ents the med ia n robust Z score
after 24-hour treatm ent and washout in cells ex pressing WT.
robust Z scores be low bas eli ne function).
second ary screens w ere perform ed i n triplicate us ing 1 0 µ M drug treatme nt to assess: 1)
acute channel block, measur ed after a 15-minute inc ubati on with the drug present duri ng
recordi ngs; and 2) t oxicit y in W T channels, assesse d af t er a 24-hour drug ex posure fol low ed
(C) Tl+-measurements after 24-hour treatment and washout in HEK cells

wild-type KV11.1 [2] = target: T1, wild-type KV11.1; assay: cell-based
[3] = mouse, in vivo, ip, 40 mg/kg; cited from earlier work
[4] = target: Kv11.1 missense variants, residues 536–628 (Homo sapiens, UniProt Q12809, Y475A); assay: Multiplexed assay of variant effect (saturation mutagenesis, FACS surface trafficking); conditions: missense variant Y475A
Protocol: (§1) Cells were grown to 40%–60% confluence and transiently transfected first with Bxb1 integrase (pCAG–NLS–HA–Bxb1) using FuGENE 6 (Promega), followed by KCNH2 variant libraries 24 hours later. On day 6, cells were induced with 1 μg/mL doxycycline. Integrated cell lines expressed a single variant alongside mCherry, while nonintegrated cells were tagBFP-positive and mCherry-negative.
(§2) Saturation mutagenesis of Kv11.1 was performed using a modified promoterless dsRed-Express derivative plasmid. WT KCNH2 was inserted adjacent to an AttB site, and NdeI/BglII sites were created via synonymous mutations. […] These were purified, ligated, and electroporated into MegaX DH10B Electrocomp Cells.
(§3) The mutant pool was subcloned into the AttB-KCNH2-HA:IRES:mCherry plasmid, with an 18-mer poly-N barcode inserted adjacent to the AttB site. Each cloning step was validated via Sanger sequencing. To link barcodes with mutants, the library was digested, ligated, and PCR amplified. Final products were purified and sequenced on an Illumina NovaSeq. Reads were analyzed with a custom Python script to identify barcodes linked to single mutations.
(§4) HEK293T cells were cultured in αMEM (Corning) with 10% FBS and 1% GlutaMax at 37°C with 5% CO2. The KCNH2 variant library was integrated into a HEK293T “landing pad” cell line containing an AttP site between a tetracycline-inducible promoter and a blue fluorescent protein gene.
(§5) Cells were transfected using FuGENE 6, first with a plasmid expressing Bxb1 integrase (pCAG–NLS–HA–Bxb1) and then, the following day, with the KCNH2 variant library. On day 6, cells were incubated with 1 μg/mL doxycycline to induce expression from the landing pad’s promoter. Resulting stable cell lines expressed one variant and mCherry, while nonintegrated cells expressed tagBFP and were mCherry-negative.
(§6) Stable HEK293T cell lines were cultured in T75 flasks until 80%–90% confluent. […] After treatments, high-throughput quantitation was performed at the Vanderbilt University Medical Center Flow Cytometry Shared Resource Core (FCSR).
(§7) The treated HEK293T library was sorted via FACS to isolate cells with high mCherry expression and successful AttB plasmid integration. […] Sorted cells were repopulated and prepared for freezing, pelleted at 1 million cells per tube.
(§8) DNA was isolated from cell pools (100 μL QuickExtract per 1 million cells) and the barcode was PCR amplified for Illumina sequencing using Q5 polymerase (25–35 cycles). Sequencing reads were demultiplexed and analyzed using custom Python scripts (https://github.com/kroncke-lab/KCNH2_DMS) to identify barcodes.
(§9) The scores were then averaged across the 4 replicate experiments (separate transfections of the mutant library pool).

[5] = target: Kv11.1 missense variants, residues 536–628 (Homo sapiens, UniProt Q12809, Y475D); assay: as above; conditions: missense variant Y475D
Protocol: as §1, §2, §3, §4, §5, §6, §7, §8, §9

[6] = tested on: Kv11.1 missense variants, residues 536–628; assay: as above
Protocol: as §1, §2, §3, §4, §5, §6, §7, §8, §9

[7] = mouse ECG, individual animals (Figure S5)
[8] = mouse ECG, individual animals (Figure S5), in ms (unit assumed)

Sequence of WT Kv11.1 (Q12809 whole entry): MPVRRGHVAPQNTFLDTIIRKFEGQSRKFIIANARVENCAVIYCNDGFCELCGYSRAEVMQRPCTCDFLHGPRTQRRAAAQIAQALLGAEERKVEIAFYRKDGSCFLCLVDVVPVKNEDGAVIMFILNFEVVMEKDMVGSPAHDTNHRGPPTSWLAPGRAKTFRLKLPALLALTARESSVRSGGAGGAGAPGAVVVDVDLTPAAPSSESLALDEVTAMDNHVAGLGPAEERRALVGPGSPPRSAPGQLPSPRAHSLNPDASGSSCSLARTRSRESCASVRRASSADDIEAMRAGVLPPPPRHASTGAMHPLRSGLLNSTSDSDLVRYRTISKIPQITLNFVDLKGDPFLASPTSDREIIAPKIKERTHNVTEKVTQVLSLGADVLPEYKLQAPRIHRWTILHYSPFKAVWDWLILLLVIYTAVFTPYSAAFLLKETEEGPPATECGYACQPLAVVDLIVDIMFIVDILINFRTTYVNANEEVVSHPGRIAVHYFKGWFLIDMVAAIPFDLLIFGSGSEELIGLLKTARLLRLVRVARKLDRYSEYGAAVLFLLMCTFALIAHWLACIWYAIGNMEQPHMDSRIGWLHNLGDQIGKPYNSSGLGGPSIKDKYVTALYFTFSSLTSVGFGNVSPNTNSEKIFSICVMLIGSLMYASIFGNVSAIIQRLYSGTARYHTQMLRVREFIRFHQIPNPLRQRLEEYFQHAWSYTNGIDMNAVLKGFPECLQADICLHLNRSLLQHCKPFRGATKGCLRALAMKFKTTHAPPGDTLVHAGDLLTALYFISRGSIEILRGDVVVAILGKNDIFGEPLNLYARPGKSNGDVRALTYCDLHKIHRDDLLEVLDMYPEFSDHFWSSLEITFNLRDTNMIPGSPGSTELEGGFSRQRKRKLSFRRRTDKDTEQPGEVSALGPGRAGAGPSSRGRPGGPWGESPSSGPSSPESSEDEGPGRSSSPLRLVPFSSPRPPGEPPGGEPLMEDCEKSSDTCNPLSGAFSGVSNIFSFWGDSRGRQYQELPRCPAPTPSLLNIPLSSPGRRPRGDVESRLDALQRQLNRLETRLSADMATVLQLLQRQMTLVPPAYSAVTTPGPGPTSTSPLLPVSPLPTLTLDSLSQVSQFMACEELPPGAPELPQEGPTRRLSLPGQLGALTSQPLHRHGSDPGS
T1 sequence (Q12809 whole entry): as above
Sequence of Kv11.1 missense variants, residues 536–628 (Homo sapiens, UniProt Q12809, Y475D) (Q12809 whole entry Y475D, the tested form may be a part): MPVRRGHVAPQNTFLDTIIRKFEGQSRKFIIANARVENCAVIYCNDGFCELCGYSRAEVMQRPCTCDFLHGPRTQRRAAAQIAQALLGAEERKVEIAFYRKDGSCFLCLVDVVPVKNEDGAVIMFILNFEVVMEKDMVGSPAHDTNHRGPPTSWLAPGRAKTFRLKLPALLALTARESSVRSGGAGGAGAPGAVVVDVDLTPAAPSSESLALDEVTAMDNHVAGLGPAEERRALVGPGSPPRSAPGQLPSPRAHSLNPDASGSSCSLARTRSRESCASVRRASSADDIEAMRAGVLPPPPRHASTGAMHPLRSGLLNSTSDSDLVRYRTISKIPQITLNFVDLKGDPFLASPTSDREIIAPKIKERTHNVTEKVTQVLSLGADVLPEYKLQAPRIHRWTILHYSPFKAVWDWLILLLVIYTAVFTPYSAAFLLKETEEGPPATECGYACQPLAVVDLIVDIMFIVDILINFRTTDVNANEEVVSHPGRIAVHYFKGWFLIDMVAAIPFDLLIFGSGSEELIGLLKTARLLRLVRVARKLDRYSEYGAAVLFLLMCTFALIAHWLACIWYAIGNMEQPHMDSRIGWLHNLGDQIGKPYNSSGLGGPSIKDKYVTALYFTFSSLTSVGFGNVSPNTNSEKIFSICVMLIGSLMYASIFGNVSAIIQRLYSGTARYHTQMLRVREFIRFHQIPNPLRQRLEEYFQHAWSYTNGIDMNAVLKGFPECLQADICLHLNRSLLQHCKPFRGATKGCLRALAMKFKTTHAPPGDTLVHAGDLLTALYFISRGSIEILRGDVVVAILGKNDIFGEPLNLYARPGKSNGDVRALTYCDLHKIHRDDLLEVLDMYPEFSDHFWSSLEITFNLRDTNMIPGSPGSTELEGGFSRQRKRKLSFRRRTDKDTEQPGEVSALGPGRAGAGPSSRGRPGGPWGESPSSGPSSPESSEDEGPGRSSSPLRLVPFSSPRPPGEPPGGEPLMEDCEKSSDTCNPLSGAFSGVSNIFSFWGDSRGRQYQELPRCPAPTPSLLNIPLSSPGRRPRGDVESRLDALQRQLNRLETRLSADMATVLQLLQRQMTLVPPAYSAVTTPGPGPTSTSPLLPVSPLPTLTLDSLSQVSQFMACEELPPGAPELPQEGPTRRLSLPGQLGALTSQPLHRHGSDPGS
Sequence of Kv11.1 missense variants, residues 536–628 (Homo sapiens, UniProt Q12809, Y475A) (Q12809 whole entry Y475A, the tested form may be a part): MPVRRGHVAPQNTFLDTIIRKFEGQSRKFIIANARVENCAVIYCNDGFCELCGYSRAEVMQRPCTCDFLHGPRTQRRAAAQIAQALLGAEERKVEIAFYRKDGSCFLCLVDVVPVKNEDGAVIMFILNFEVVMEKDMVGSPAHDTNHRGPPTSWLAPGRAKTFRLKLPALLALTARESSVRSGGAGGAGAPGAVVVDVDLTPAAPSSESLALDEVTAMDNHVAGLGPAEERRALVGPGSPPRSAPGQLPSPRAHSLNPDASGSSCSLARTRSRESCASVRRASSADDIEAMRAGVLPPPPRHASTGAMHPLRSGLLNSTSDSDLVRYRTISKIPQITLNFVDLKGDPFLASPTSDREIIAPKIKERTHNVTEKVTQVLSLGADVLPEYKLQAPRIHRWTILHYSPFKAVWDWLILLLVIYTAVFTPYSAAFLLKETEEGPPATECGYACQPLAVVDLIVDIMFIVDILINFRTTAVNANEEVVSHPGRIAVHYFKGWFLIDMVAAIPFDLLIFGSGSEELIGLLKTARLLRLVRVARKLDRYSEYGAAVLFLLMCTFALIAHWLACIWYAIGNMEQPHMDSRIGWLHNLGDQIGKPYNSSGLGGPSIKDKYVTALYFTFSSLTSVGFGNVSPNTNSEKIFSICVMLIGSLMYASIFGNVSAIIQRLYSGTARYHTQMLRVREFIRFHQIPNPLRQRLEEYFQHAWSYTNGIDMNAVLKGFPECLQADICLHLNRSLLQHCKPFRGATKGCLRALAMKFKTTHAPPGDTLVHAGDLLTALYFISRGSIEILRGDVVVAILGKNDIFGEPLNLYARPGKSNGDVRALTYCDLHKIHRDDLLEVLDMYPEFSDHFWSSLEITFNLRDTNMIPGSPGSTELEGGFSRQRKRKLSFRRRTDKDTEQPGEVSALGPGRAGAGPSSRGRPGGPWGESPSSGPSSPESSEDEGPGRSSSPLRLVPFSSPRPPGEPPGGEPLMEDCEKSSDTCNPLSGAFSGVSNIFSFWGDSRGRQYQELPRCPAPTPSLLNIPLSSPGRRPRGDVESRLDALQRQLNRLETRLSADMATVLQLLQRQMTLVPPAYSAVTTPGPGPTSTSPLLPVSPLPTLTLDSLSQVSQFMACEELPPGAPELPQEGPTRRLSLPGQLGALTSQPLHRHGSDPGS

Compound: Cc1cc(C)c2c(c1)[C@@H](N(Cc1cc(C(F)(F)F)cc(C(F)(F)F)c1)c1nnn(C)n1)CCCN2C[C@H]1CC[C@H](C(=O)O)CC1 [Evacetrapib, evacetrapib]
- ECG parameters, including the QT interval (C57BL/6J mice; mice, 40 mg/kg intraperitoneally, 30 minutes post-drug): No significant differences
- P duration (C57BL/6J mice; [7]): 13.6667 and 11.3333 and 10.6667 and 11.6667 and 9 and 13.3333 and 12.3333
- PR interval (C57BL/6J mice; [7]): 56.3333 and 38.3333 and 42.3333 and 46.6667 and 44.6667 and 41.6667
- QT (C57BL/6J mice; [7]): 31.3333 and 39.3333 and 34 and 35.3333 and 42.3333
- QTc (C57BL/6J mice; [7]): 30.5782 and 35.4177 and 28.9078 and 33.1412 and 36.2561 and 31.0292 and 33.811
- QRS (C57BL/6J mice; [8]): 12 and 11 and 10.6667 and 10.3333
- RR (C57BL/6J mice; [8]): 105 and 123.333 and 138.333 and 113.667 and 136.333 and 129.667 and 135.333
- inhibition of WT channels (wild-type KV11.1 [1]): did not inhibit WT channels
- Changes in WT function (thallium flux) (WT Kv11.1): 0.1125 and 0.1113 and 0.1215
- pEC50 (wild-type KV11.1 [2]): 5.09
- peak plasma levels [3]: 35 µmol/L
- score (Figure 6B) [4]: 25.1035
- score (Figure 6B) [5]: 152.736
- share of the 546 variants rescued by either drug that evacetrapib improved ([6]; 10 μmol/L, 24 hours): 45%
- share of known pathogenic variants in the pore region with improved trafficking ([6]; 16 out of 94): 17%
- share of all trafficking-deficient variants in this channel segment with improved trafficking ([6]; 248 out of 971, 10 μmol/L, 24 hours): 25%
- number of trafficking-deficient variants with improved trafficking ([6]; of 971 variants with ≥90% loss of surface expression, 10 μmol/L, 24 hours): 248
- number of known pathogenic variants in the pore region with improved trafficking ([6]; out of 94, 10 μmol/L, 24 hours): 16

— article PMC12643509, “High-throughput screens identify genotype-specific therapeutics for channelopathies” (JCI Insight, 2025)
